Where “and” joins values, the source holds several entries; their conditions need not be identical. Equal values may be shown once.
Experiments:
Assay type in all cases: in vivo
[1] = Methoprene found in manure of cats fed treated cat food; conditions: for Calculated Methoprene (ppm) in manure: cats Q, S, T
Method: This example illustrates a study in cats comparing an inventive formulation containing lignin-methoprene complexes with a formulation containing free methoprene.
Three cats were fed the formulations for a week and their manure was tested every 24 hours.

[2] = Enteric Matrix/Coating of Methoprene Feed Through Study in chickens; conditions: Feed Rate 23.8 ppm
Description: This example illustrates a study of methoprene versus enteric coated methoprene. The results below indicate that there is no difference in % recovery between technical grade methoprene and enteric coated methoprene or matrix treated methoprene.

[3] = Methoprene found in manure of horses fed treated feed as top dressing; conditions: Average of Day 0-Day 10
Method: This example illustrates a study in horses comparing an inventive formulation containing a lignin-methoprene complex with a formulation containing free methoprene.
Four horses were fed the formulations for eleven days and their manure was tested every 24 hours.

[4] = Methoprene found in manure of cows fed treated feed as top dressing; conditions: Average of Day 1-Day 10
Method: This example illustrates a study in cattle comparing an inventive formulation containing a lignin-methoprene complex with a formulation containing free methoprene.
Four cows were fed the formulations for eleven days and their manure was tested every 24 hours.

[5] = Barium (BaSO4) passing into the manure of chickens; conditions: for Amount of Barium, % found in manure: 0.093% in feed
Description: This example illustrates a determination of the maximum concentration of any active agent that will pass into the manure of chickens.
Briefly, chicken feed was formulated using a pulverized cattle bolus which contained barium in the form of BaSO4.

[6] = horse Bettor Lad, AI fed 8.94 ppm

## COC(C)(C)CCCC(C)C/C=C/C(C)=C/C(=O)OC(C)C (stereo not drawn) [free methoprene, methoprene]
[1]; cat food @ 36.2 ppm, 24 hr
  Day 1 Avg. methoprene in manure: 0.63 ppm
  Day 1 Avg. methoprene recovered in manure (%): (1.7%)
[1]; cat food @ 36.2 ppm, 48 hr
  Day 2 Avg. methoprene in manure: 2.2 ppm
  Day 2 Avg. methoprene recovered in manure (%): (6.1%)
[1]; cat food @ 36.2 ppm, 72 hr
  Day 3 Avg. methoprene in manure: 1.8 ppm
  Day 3 Avg. methoprene recovered in manure (%): (5.0%)
[1]; cat food @ 36.2 ppm, 96 hr
  Day 4 Avg. methoprene in manure: 1.9 ppm
  Day 4 Avg. methoprene recovered in manure (%): (5.2%)
[1]; cat food @ 36.2 ppm, Day 0 (0 hr)
  Calculated Methoprene (ppm) in manure: 0 ppm
[1]; cat food @ 36.2 ppm, Day 1 (24 hr), listed as Free Methoprene Lot # 491-166
  Calculated Methoprene (ppm) in manure: 0.6 ppm and 0.7 ppm
[1]; cat food @ 36.2 ppm, Day 2 (48 hr), listed as Free Methoprene Lot # 491-166
  Calculated Methoprene (ppm) in manure: 2.4 ppm and 2.5 ppm and 1.6 ppm
[1]; cat food @ 36.2 ppm, Day 3 (72 hr), listed as Free Methoprene Lot # 491-166
  Calculated Methoprene (ppm) in manure: 2.0 ppm and 1.5 ppm
[1]; range of daily averages Day 1-Day 4
  amount of methoprene recovered from the manure of cats: 1.7-6.1%
[2]
  % Recovery: 12.22%
[2]; feed Egg Buster
  Manure Rate ppm (methoprene): 2.91 ppm
[3]; [6]
  AI manure ppm: 1.29 ppm
  Percent pass through: 14.4%
[3]; horse Dancer, AI fed 8.61 ppm
  AI manure ppm: 1.30 ppm
  Percent pass through: 15.1%
[3]; horses, two per group
  Avg. % pass through by Group: 14.75%
[4]; cow 10 R/W, AI fed 8.94 ppm
  AI manure ppm: 0.16 ppm
  Percent pass through: 1.8%
[4]; cow 16 Black, AI fed 12.58 ppm
  AI manure ppm: 0.35 ppm
  Percent pass through: 2.8%
[4]; cows, two per group
  Avg. % pass through by Group: 2.3%

## O=S(=O)([O-])[O-].[Ba+2] [Barium, BaSO4]
[5]; 4 hr.
  % of initial BaSO4 found in manure: 1.78%
[5]; 4 hr. after feeding
  Amount of Barium, % found in manure: 0.00165%
[5]; 24 hr.
  % of initial BaSO4 found in manure: 48.90%
[5]; 24 hr. after feeding
  Amount of Barium, % found in manure: 0.0455%
[5]; 48 hr.
  % of initial BaSO4 found in manure: 59.90%
[5]; 48 hr. after feeding
  Amount of Barium, % found in manure: 0.0557%
[5]; 72 hr.
  % of initial BaSO4 found in manure: 50.60%
[5]; 72 hr. after feeding
  Amount of Barium, % found in manure: 0.0471%

— patent US8226963B2, “Feed-through lignin-pesticide compositions” (Wellmark International, priority 2005, dated 2012)
